A value given as a limit tells only on which side of the number the result lay.

For series [1] the following is noted: patients, 1-yr trial; cited from earlier work.
Series [2] concerns the target recombinant SphK2 (Mus musculus, UniProt Q9JIA7). Description: SphK2 scintillation proximity kinase assay. It counts as biochemical. As to conditions: Estimated Ki values at recombinant SphK2; read-out: SphK2 (estimated Ki range).
In series [3] the target is recombinant SphK1 (Homo sapiens (Human), UniProt Q9NYA1). Kind of series: SphK1 scintillation proximity kinase assay. As to conditions: read-out: SphK1 (estimated Ki range); Estimated Ki values at recombinant SphK1.
Chain of recombinant SphK1 (Q9NYA1 whole entry): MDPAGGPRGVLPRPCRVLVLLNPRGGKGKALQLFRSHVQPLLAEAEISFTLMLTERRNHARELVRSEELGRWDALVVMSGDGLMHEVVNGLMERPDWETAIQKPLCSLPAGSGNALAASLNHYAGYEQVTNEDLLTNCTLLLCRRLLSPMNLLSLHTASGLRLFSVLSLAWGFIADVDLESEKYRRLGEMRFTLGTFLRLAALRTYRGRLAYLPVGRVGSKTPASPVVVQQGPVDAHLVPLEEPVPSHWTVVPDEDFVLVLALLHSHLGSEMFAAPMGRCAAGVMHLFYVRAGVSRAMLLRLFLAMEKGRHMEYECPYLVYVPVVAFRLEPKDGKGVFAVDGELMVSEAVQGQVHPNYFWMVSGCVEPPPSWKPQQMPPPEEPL
The target of series [4] is sphingosine kinases. As to conditions: background statement; read-out: typical KI value; cited from earlier work.

Chain of recombinant SphK2 (Q9JIA7 whole entry, looked up): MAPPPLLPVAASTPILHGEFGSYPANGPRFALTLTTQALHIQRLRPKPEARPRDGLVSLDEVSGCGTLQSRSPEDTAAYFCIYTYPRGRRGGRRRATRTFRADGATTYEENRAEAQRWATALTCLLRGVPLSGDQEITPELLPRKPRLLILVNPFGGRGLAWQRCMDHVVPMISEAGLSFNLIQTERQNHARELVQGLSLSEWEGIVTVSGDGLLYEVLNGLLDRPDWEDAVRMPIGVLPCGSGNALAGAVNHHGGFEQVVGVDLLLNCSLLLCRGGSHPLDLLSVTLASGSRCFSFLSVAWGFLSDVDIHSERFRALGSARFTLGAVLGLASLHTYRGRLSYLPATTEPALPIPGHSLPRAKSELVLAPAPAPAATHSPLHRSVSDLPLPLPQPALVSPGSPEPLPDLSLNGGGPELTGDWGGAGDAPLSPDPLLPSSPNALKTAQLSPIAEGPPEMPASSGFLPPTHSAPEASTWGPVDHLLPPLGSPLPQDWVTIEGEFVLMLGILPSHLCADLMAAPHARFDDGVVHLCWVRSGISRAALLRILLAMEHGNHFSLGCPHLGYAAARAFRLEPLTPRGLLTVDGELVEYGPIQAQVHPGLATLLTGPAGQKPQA

As for `CCCCCCCCc1ccc(CCC(N)(CO)CO)cc1` [fingolimod, 2-amino-2-[2-(4-octylphenyl)ethyl]propane 1,3-diol], the “hypertension (blood pressure rise)” value in series [1] was 2-3 mmHg.

As a reminder, the Ki is the dissociation constant of the complex between target and ligand, obtained from inhibition or displacement. For “(S)-2-((3-(3-nonylphenyl)-1,2,4- oxadiazol-5-yl)methyl)pyrrolidine-1- carboximidamide [Compound 75]”, the Ki in series [2] and in series [3] was above 10 µM in each case.

Consider `CCCCCCCCCCCCCCC[C@H](O)[C@@H](N)CO` (racemic) [DL-threo-dihydrosphingosine], for which the Ki in series [4] is below 10 µM.
